Data: patent US20230129258A1, “HETEROTANDEM BICYCLIC PEPTIDE COMPLEXES” (BicycleTx Limited, priority 2019, published 2023)
Starred links: 1 amine or outer side, 2 acyl side, 3 side chain; linkers in the order of their positions; H or OH if unused. Positions of bridges follow the written chain, without caps; N, C: chain ends. Non-standard residues stand in square brackets, D forms with d. Chains are numbered I, II in the order given. X1 = O=C(CCOCCOCCOCCN(CCOCCOCCOCCn1cc(CCC(=O)[*:2])nn1)CCOCCOCCOCCn1cc(CCC(=O)[*:3])nn1)[*:1]; X3 = O=C(CCc1cn(CCOCCOCCOCCN(CCOCCOCCOCCC(=O)[*:3])CCOCCOCCOCCn2cc(CCC(=O)[*:2])nn2)nn1)[*:1]; X2 = O=C(CCSCCC(=O)[*:1])N1CN(C(=O)CC[*:2])CN(C(=O)CC[*:3])C1; TATA = O=C(CC[*:1])N1CN(C(=O)CC[*:2])CN(C(=O)CC[*:3])C1; Dip = N[C@H](C(=O)O)C(c1ccccc1)c1ccccc1; 1Nal = N[C@@H](Cc1cccc2ccccc12)C(=O)O; d1Nal = N[C@H](Cc1cccc2ccccc12)C(=O)O; Hyp = O=C(O)[C@@H]1C[C@@H](O)CN1; hArg = N=C(N)NCCCC[C@H](N)C(=O)O; tBuAla = CC(C)(C)C[C@H](N)C(=O)O; Cba = N[C@@H](CC1CCC1)C(=O)O; NMeA = CN[C@@H](C)C(=O)O; Nle = CCCC[C@H](N)C(=O)O; Mpa = O=C(O)CCS

Tests used:
[1] = Pharmacokinetics in SD rats; assay type: in vivo; conditions: rat, in vivo, IV Inf (15 minutes)
Experimental: Male SD Rats were dosed with each heterotandem Bicycle peptide complex formulated in 25 mM Histidine HCl, 10% sucrose pH 7 by IV bolus or IV infusion (15 minutes). Serial bleeding (about 80 μL blood/time point) was performed via submandibular or saphenous vein at each time point. All blood samples were immediately transferred into prechilled microcentrifuge tubes containing 2 μL K2-EDTA (0.5M) as anti-coagulant and placed on wet ice. Blood samples were immediately processed for plasma by centrifugation at approximately 4° C., 3000 g. The precipitant including internal standard was immediately added into the plasma, mixed well and centrifuged at 12,000 rpm, 4° C. for 10 minutes. The supernatant was transferred into pre-labeled polypropylene microcentrifuge tubes, and then quick-frozen over dry ice. The samples were stored at […] or below as needed until analysis. 7.5 μL of the supernatant samples were directly injected for LC-MS/MS analysis using an Orbitrap Q Exactive in positive ion mode to determine the concentrations of analyte. Plasma concentration versus time data were analyzed by non-compartmental approaches using the Phoenix WinNonlin 6.3 software program. C0, CI, Vdss, T½, AUC(0-last), AUC(0-inf), MRT(0-last), MRT(0-inf) and graphs of plasma concentration versus time profile were reported.

[2] = molecular target: CD137 (Homo sapiens, UniProt Q07011); assay: CD137 reporter assay (Promega, Jurkat cells) in co-culture with EphA2-expressing tumor cells (A549, PC3, HT29); assay type: cell-based; set-up: host or cells: Jurkat reporter cells; conditions: for fold induction / Emax (fold induction over background): CD137 reporter coculture assay with PC3 tumor cells; for fold induction: read-out: Emax (fold induction over background); for EC50: EC50, CD137 reporter coculture assay with PC3 tumor cells
Experimental: Culture medium, referred to as R1 media, is prepared by adding 1% FBS to RPMI-1640 (component of Promega kit CS196005). Serial dilutions of test articles in R1 are prepared in a sterile 96 well-plate. Add 25 μL per well of test articles or R1 (as a background control) to designated wells in a white cell culture plate. Tumor cells* are harvested and resuspended at a concentration of 400,000 cells/mL in R1 media. Twenty five (25) μL/well of tumor cells are added to the white cell culture plate. Jurkat cells (Promega kit CS196005, 0.5 mL) are thawed in the water bath and then added to 5 ml pre-warmed R1 media. Twenty five (25) μL/well of Jurkat cells are then added to the white cell culture plate. Incubate the cells and test articles for 6 h at 37° C., 5% CO2. At the end of 6 h, add 75 μL/well Bio-Glo™ reagent (Promega) and incubate for 10 min before reading luminescence in a plate reader (Clariostar, BMG). The fold change relative to cells alone (Jurkat cells+Cell line used in co-culture) is calculated and plotted in GraphPad Prism as log(agonist) vs response to determine EC50 (nM) and Fold Induction over background (Max).
The tumor cell types used in co-culture for EphA2 are A549, PC3 and HT29. The tumor cell type used in co-culture for PD-L1 is RKO.

Chain of CD137 (Q07011 24-255): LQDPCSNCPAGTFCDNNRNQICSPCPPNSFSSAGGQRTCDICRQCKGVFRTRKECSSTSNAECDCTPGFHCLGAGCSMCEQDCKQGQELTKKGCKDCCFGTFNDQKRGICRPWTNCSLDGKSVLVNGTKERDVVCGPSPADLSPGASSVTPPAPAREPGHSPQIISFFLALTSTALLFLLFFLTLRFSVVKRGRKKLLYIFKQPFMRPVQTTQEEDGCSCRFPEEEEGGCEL

| Substance | fold induction [2] | EC50 [2] [nM] | Emax (fold induction over background) [2] | other results |
| --- | --- | --- | --- | --- |
| I: A[hArg]DC[Hyp]LVNPLCLHP[dD]W[hArg]C-NH2 / II: Ac-C[tBuAla]PE[dK]PYCFADPY[Nle]C-NH2 / III: Ac-C[tBuAla]PE[dK]PYCFADPY[Nle]C-NH2 (linker I:4-I:11-I:18, II:1-II:8-II:15, III:1-III:8-III:15 via TATA; linker I:N-II:5-III:5 via X1) [BCY12724] |  |  |  | half-life ([1]; iv, read-out: T1/2 (converted)): 1.5 h; clearance ([1]; read-out: Clp): 13 mL/min/kg; Vd ([1]; read-out: Vdss): 1.2 L/kg |
| I: A[hArg]EC[Hyp]LVNPLCLHP[dE]W[hArg]C-NH2 / II: Ac-C[tBuAla]PE[dK]PYCFADPY[Nle]CA-NH2 / III: Ac-C[tBuAla]PE[dK]PYCFADPY[Nle]CA-NH2 (linker I:4-I:11-I:18, II:1-II:8-II:15, III:1-III:8-III:15 via TATA; linker I:N-II:5-III:5 via X1) [BCY12978] | 78.1 |  |  |  |
| I: Ac-A[hArg]DC[Hyp]KVNPLCLHP[dD]W[hArg]C-NH2 / II: Ac-C[tBuAla]PE[dK]PYCFADPY[Nle]CA-NH2 / III: Ac-C[tBuAla]PE[dK]PYCFADPY[Nle]CA-NH2 (linker I:4-I:11-I:18, II:1-II:8-II:15, III:1-III:8-III:15 via TATA; linker I:6-II:5-III:5 via X1) [BCY12975] | 68.8 | 0.16 |  |  |
| I: Ac-A[hArg]DC[Hyp]LVNPLCKHP[dD]W[hArg]C-NH2 / II: Ac-C[tBuAla]PE[dK]PYCFADPY[Nle]CA-NH2 / III: Ac-C[tBuAla]PE[dK]PYCFADPY[Nle]CA-NH2 (linker I:4-I:11-I:18, II:1-II:8-II:15, III:1-III:8-III:15 via TATA; linker I:12-II:5-III:5 via X1) [BCY12976] | 73.2 | 0.18 |  |  |
| I: Ac-A[hArg]DC[Hyp]LVNPLCLHP[dD]W[hArg]CK-NH2 / II: Ac-C[tBuAla]PE[dK]PYCFADPY[Nle]CA-NH2 / III: Ac-C[tBuAla]PE[dK]PYCFADPY[Nle]CA-NH2 (linker I:4-I:11-I:18, II:1-II:8-II:15, III:1-III:8-III:15 via TATA; linker I:19-II:5-III:5 via X1) [BCY12973] | 48.6 | 0.16 |  |  |
| I: Ac-A[hArg]DC[Hyp]LVNPLCLKP[dD]W[hArg]C-NH2 / II: Ac-C[tBuAla]PE[dK]PYCFADPY[Nle]CA-NH2 / III: Ac-C[tBuAla]PE[dK]PYCFADPY[Nle]CA-NH2 (linker I:4-I:11-I:18, II:1-II:8-II:15, III:1-III:8-III:15 via TATA; linker I:13-II:5-III:5 via X1) [BCY12974] | 59.6 | 0.18 |  |  |
| I: Ac-C[Hyp]LVNPLCL[Dip]P[dD]WTC[dK]-NH2 / II: Ac-C[tBuAla]PE[dK]PYCFADPY[Nle]CA-NH2 / III: Ac-C[tBuAla]PE[dK]PYCFADPY[Nle]CA-NH2 (linker I:1-I:8-I:15, II:1-II:8-II:15, III:1-III:8-III:15 via TATA; linker I:16-II:5-III:5 via X1; C-terminus assumed) [BCY13274] |  | 0.19 | 47.43 |  |
| I: Ac-C[tBuAla]PE[dK]PYCFADPY[Nle]CA-NH2 / II: Ac-C[tBuAla]PE[dK]PYCFADPY[Nle]CA-NH2 / III: C[Hyp]LVNPLCL[1Nal]P[dD]WTC-NH2 (linker I:1-I:8-I:15, II:1-II:8-II:15, III:1-III:8-III:15 via TATA; linker I:5-II:5-III:N via X3) [BCY13273] |  |  | 51.27 |  |
| I: C[Hyp]LVNPLCLEP[dD]WTC[dA]-NH2 / II: Ac-C[tBuAla]PE[dK]PYCFADPY[Nle]CA-NH2 / III: Ac-C[tBuAla]PE[dK]PYCFADPY[Nle]CA-NH2 (linker I:1-I:8-I:15, II:1-II:8-II:15, III:1-III:8-III:15 via TATA; linker I:N-II:5-III:5 via X1) [BCY13049] |  |  | 46.03 |  |
| I: C[Hyp]LVNPLCL[Dip]P[dD]WTC-NH2 / II: [Mpa][tBuAla]PE[dK]PYCFADPY[Nle]C-NH2 / III: [tBuAla]PE[dK]PYCFADPY[Nle]C-NH2 (linker I:1-I:8-I:15, II:1-II:8-II:15 via TATA; linker I:N-II:5-III:4 via X1; linker III:N-III:7-III:14 via X2) [BCY13343] |  | 0.11 | 44.00 |  |
| I: C[Hyp][Cba]VNPLCL[Dip]P[dD]WTC[dA]-NH2 / II: Ac-C[tBuAla]PE[dK]PYCFADPY[Nle]CA-NH2 / III: Ac-C[tBuAla]PE[dK]PYCFADPY[Nle]CA-NH2 (linker I:1-I:8-I:15, II:1-II:8-II:15, III:1-III:8-III:15 via TATA; linker I:N-II:5-III:5 via X1) [BCY13053] |  | 0.1 | 40.33 |  |
| I: C[Hyp][Cba]VNPLCL[Dip]P[dD]WTC[dA]-NH2 / II: [Mpa][tBuAla]PE[dK]PYCFADPY[Nle]C-NH2 / III: [tBuAla]PE[dK]PYCFADPY[Nle]C-NH2 (linker I:1-I:8-I:15, II:1-II:8-II:15 via TATA; linker I:N-II:5-III:4 via X1; linker III:N-III:7-III:14 via X2) [BCY13341] |  | 0.19 | 49.15 |  |
| I: [NMeA][hArg]DC[Hyp]LVNPLCLEP[dD]WTC-NH2 / II: Ac-C[tBuAla]PE[dK]PYCFADPY[Nle]CA-NH2 / III: Ac-C[tBuAla]PE[dK]PYCFADPY[Nle]CA-NH2 (linker I:4-I:11-I:18, II:1-II:8-II:15, III:1-III:8-III:15 via TATA; linker I:N-II:5-III:5 via X1) [BCY13276] | 50.5 | 0.1 |  |  |
| I: [NMeA][hArg]DC[Hyp]LVNPLCLHP[dD]W[hArg]C-NH2 / II: Ac-C[tBuAla]PE[dK]PYCFADPY[Nle]CA-NH2 / III: Ac-C[tBuAla]PE[dK]PYCFADPY[Nle]CA-NH2 (linker I:4-I:11-I:18, II:1-II:8-II:15, III:1-III:8-III:15 via TATA; linker I:N-II:5-III:5 via X1) [BCY13275] |  | 0.08 | 47.50 |  |
| I: [d1Nal][hArg]DC[Hyp][Cba]VNPLCLEP[dA]WTC[dA]-NH2 / II: Ac-C[tBuAla]PE[dK]PYCFADPY[Nle]CA-NH2 / III: Ac-C[tBuAla]PE[dK]PYCFADPY[Nle]CA-NH2 (linker I:4-I:11-I:18, II:1-II:8-II:15, III:1-III:8-III:15 via TATA; linker I:N-II:5-III:5 via X1) [BCY13278] | 37.9 | 0.14 |  |  |
| I: [dA]EDC[Hyp]LVNPLCLEP[dD]WTC-NH2 / II: Ac-C[tBuAla]PE[dK]PYCFADPY[Nle]CA-NH2 / III: Ac-C[tBuAla]PE[dK]PYCFADPY[Nle]CA-NH2 (linker I:4-I:11-I:18, II:1-II:8-II:15, III:1-III:8-III:15 via TATA; linker I:N-II:5-III:5 via X1) [BCY13280] | 38.1 | 0.19 |  |  |
| I: [dA][dA]DC[Hyp]LVNPLCLEP[dD]WTC-NH2 / II: Ac-C[tBuAla]PE[dK]PYCFADPY[Nle]CA-NH2 / III: Ac-C[tBuAla]PE[dK]PYCFADPY[Nle]CA-NH2 (linker I:4-I:11-I:18, II:1-II:8-II:15, III:1-III:8-III:15 via TATA; linker I:N-II:5-III:5 via X1) [BCY13281] | 35.6 | 0.17 |  |  |
| I: [dA][hArg]DC[Hyp][Cba]VNPLCLEP[dA]WTC[dA]-NH2 / II: Ac-C[tBuAla]PE[dK]PYCFADPY[Nle]CA-NH2 / III: Ac-C[tBuAla]PE[dK]PYCFADPY[Nle]CA-NH2 (linker I:4-I:11-I:18, II:1-II:8-II:15, III:1-III:8-III:15 via TATA; linker I:N-II:5-III:5 via X1) [BCY13277] | 51.1 | 0.08 |  |  |
| I: [dA][hArg]DC[Hyp][Cba]VNPLCLEP[dD]WTC[dA]-NH2 / II: Ac-C[tBuAla]PE[dK]PYCFADPY[Nle]CA-NH2 / III: Ac-C[tBuAla]PE[dK]PYCFADPY[Nle]CA-NH2 (linker I:4-I:11-I:18, II:1-II:8-II:15, III:1-III:8-III:15 via TATA; linker I:N-II:5-III:5 via X1) [BCY13052] | 32.9 | 0.21 |  |  |
